Results taken from patent US10869476B2 (priority 2015, dated 2020).
Read-outs that look alike come from different tables or passages of the source.

Columns and labels:
Type in all cases: in vivo
Gibberella zeae = conditions: winter wheat kernels after harvest, Germany 2015; 75 g a.i./ha, 100 EC formulation plus adjuvant, BBCH 65; HPLC-MS/MS; Untreated Control 497
Fusarium = conditions: wheat, 100 EC, 67 days after application
Fusarium head blight = conditions: wheat field trials France and Germany 2016; for Fusarium head blight in % sev. after 11 to 20 days after application: UTC 13; for Fusarium head blight in % sev. after 21 to 46 days after application: UTC 35

CON(C(=O)c1cn(C)nc1C(F)F)C(C)Cc1c(Cl)cc(Cl)cc1Cl (stereo not shown) [Pydiflumetofen, 3-(Difluoromethyl)-N-methoxy-1-methyl-N-[1-(2,4,6-trichlorophenyl)-2-propanyl]-1H-pyrazole-4-carboxamide]
Deoxynivalenol Content (Gibberella zeae): 44 ppm | 3- Acetyl Deoxynivalenol (Fusarium; France, second trial (UTC 189), 45 g a.i./ha): 63 ppb | 3- Acetyl Deoxynivalenol (Fusarium; France, second trial (UTC 189), 60 g a.i./ha): <50 ppb | Nivalenol (Fusarium; Germany, first trial (UTC 126), 45 g a.i./ha): 0 ppb | Nivalenol (Fusarium; Germany, first trial (UTC 126), 60 g a.i./ha): 0 ppb | 3- Acetyl Deoxynivalenol (Fusarium; Germany, second trial (UTC 56), 45 g a.i./ha): 0 ppb | 3- Acetyl Deoxynivalenol (Fusarium; Germany, second trial (UTC 56), 60 g a.i./ha): 0 ppb | Nivalenol (Fusarium; Germany, second trial (UTC 159), 45 g a.i./ha): 0 ppb | Nivalenol (Fusarium; Germany, second trial (UTC 159), 60 g a.i./ha): 0 ppb | Fusarium head blight in % sev. after 11 to 20 days after application (Fusarium head blight; 45 g a.i./ha): 42 % sev. | Fusarium head blight in % sev. after 21 to 46 days after application (Fusarium head blight; 45 g a.i./ha): 51 % sev. | Fusarium head blight in % sev. after 11 to 20 days after application (Fusarium head blight; 60 g a.i./ha): 52 % sev. | Fusarium head blight in % sev. after 21 to 46 days after application (Fusarium head blight; 60 g a.i./ha): 64 % sev.
